“And” between values parts separate entries of the source, which are not always exact repeats. Identical values can stand only once.
Columns and labels:
Format in all cases: cell-based
[1] = test system: microbial load; assay: Microbial load reduction on cotton cloth coated with quaternary ammonium compound alone; conditions: no electric field
Description: The solid surface (cotton cloth) was suspended in a solution containing cetyltrimethylammonium bromide (CTAB) or alkyl dimethyl benzyl ammonium chloride (benzalkonium chloride) at various concentrations for about 2 hours. The solid surfaces were then heat dried in a furnace where the temperature was set at about 80° C., for about 8 hours. Once dried, the solid surfaces coated with QAC were ready to be used for various applications.
Reduction in microbial load was analysed at different concentrations of QACs.

[2] = test system: microbial load; assay: Microbial load reduction on QAC-coated cotton cloth with or without electric field; conditions: for Microbial Load Reduction (Log10 Scale): cotton cloth coated with 0.01% w/v
Description: The effect of QAC coating and electric field application on flexible solid surfaces was analysed. The solid surface analysed was fabric (cotton cloth). The procedure for coating of QAC (CTAB or benzalkonium chloride) onto the cotton cloth was identical to the procedure described in Example 1. The final coated amount of QAC (CTAB or benzalkonium chloride) was between 0.01-0.05 mg/cm^2 of the solid surface. The electric field in this experiment was applied via. switch mode power supply (SMPS) with a voltage of 4 kV/cm coupled with a capacitance of 0.05 μF for various time-periods.
Reduction in microbial load was analysed using different methods.

[3] = test system: microbial load; assay: Microbial load reduction on QAC-coated metal surface (aluminium plate) with or without electric field
Description: The effect of QAC coating and electric field application on non-flexible/hard solid surfaces was analysed. The solid surface analysed was a metal surface (aluminium plate). The coating procedure of QAC (cetrimonium salt—CTAB) was identical to the procedure described in Example 1. The final coated amount of CTAB was between 0.01-0.05 mg/cm^2 of the solid surface. The electric field in this experiment was applied via. switch mode power supply (SMPS) with a voltage of 4 kV/cm coupled with a capacitance of 0.05 μF for various time-periods.
It was observed that when the metal was coated with low concentration of cetrimonium salt (CTAB) followed by application of electric field, the subjected microbial load was completely eliminated (>7 log10 reduction in microbial load or >99.99999% reduction in microbial load) within 10 minutes [Experiment No. 4]. […] Lastly, under normal conditions, when the metal was left undisturbed, the microbial load remained largely unaltered over a period of 30 minutes [Experiment No. 1].

[4] = test system: microbial load; assay: Microbial load reduction on CTAB-coated polyester cotton fabric, electric field with varying capacitance; conditions: for Microbial Load Reduction (Log10 Scale): polyester cotton fabric 90:10, 0.02±0.005% w/v coating, electric field 4 kV/cm DC
Description: The effect of QAC coating and varying electric field application on solid surfaces was analysed. The solid surface analysed was polyester cotton fabric in the ratio 90:10. The procedure for coating of QAC (CTAB) onto the said polyester cotton fabric was identical to the procedure described in Example 1. The CTAB concentration employed was 0.02±0.005% w/v and the final coated amount of QAC (CTAB) was between 0.01-0.05 mg/cm^2 of the solid surface. The electric field in this experiment was applied via. switch mode power supply (SMPS).

[5] = test system: microbial load; assay: Microbial load reduction on CTAB-coated polyester cotton fabric, electric field with varying voltage; conditions: for Microbial load reduction (Log10 scale) at 10 mins: polyester cotton fabric, 0.02±0.005% w/v coating, capacitance 0.05 μF
Description: Another set of experiments were conducted wherein the procedure for coating of QAC (CTAB) onto the polyester cotton fabric was identical to the procedure described in Example 1. The CTAB concentration employed was 0.02±0.005% w/v and the final coated amount of QAC (CTAB) was between 0.01-0.05 mg/cm^2 of the solid surface. The electric field in this experiment was applied via. switch mode power supply (SMPS).

CCCCCCCCCCCCCCCC[N+](C)(C)C.[Br-] [CTAB, cetyltrimethylammonium bromide]
Microbial Load Reduction (Log10 Scale) ([1]; cotton cloth coated with 0.01% w/v, 0 mins): 0.00 Log10 | Microbial Load Reduction (Log10 Scale) ([1]; cotton cloth coated with 0.01% w/v, 10 mins): 1.11 Log10 | Microbial Load Reduction (Log10 Scale) ([1]; cotton cloth coated with 0.01% w/v, 30 mins): 2.52 Log10 | Microbial Load Reduction (Log10 Scale) ([1]; cotton cloth coated with 0.01% w/v, 45 mins): 4.35 Log10 | Microbial Load Reduction (Log10 Scale) ([1]; cotton cloth coated with 0.01% w/v, 60 mins): 7.60 Log10 | Microbial Load Reduction (Log10 Scale) ([1]; cotton cloth coated with 0.01% w/v, 90 mins): 7.60 Log10 | Microbial Load Reduction (Log10 Scale) ([1]; cotton cloth coated with 0.05% w/v, 0 mins): 0.00 Log10 | Microbial Load Reduction (Log10 Scale) ([1]; cotton cloth coated with 0.05% w/v, 10 mins): 1.18 Log10 | Microbial Load Reduction (Log10 Scale) ([1]; cotton cloth coated with 0.05% w/v, 30 mins): 2.54 Log10 | Microbial Load Reduction (Log10 Scale) ([1]; cotton cloth coated with 0.05% w/v, 45 mins): 5.12 Log10 | Microbial Load Reduction (Log10 Scale) ([1]; cotton cloth coated with 0.05% w/v, 60 mins): 7.32 Log10 | Microbial Load Reduction (Log10 Scale) ([1]; cotton cloth coated with 0.05% w/v, 90 mins): 7.32 Log10 | Microbial Load Reduction (Log10 Scale) ([1]; cotton cloth coated with 0.1% w/v, 0 mins): 0.00 Log10 | Microbial Load Reduction (Log10 Scale) ([1]; cotton cloth coated with 0.1% w/v, 10 mins): 7.41 Log10 | Microbial Load Reduction (Log10 Scale) ([1]; cotton cloth coated with 0.1% w/v, 30 mins): 7.41 Log10 | Microbial Load Reduction (Log10 Scale) ([1]; cotton cloth coated with 0.1% w/v, 45 mins): 7.41 Log10 | Microbial Load Reduction (Log10 Scale) ([1]; cotton cloth coated with 0.1% w/v, 60 mins): 7.41 Log10 | Microbial Load Reduction (Log10 Scale) ([1]; cotton cloth coated with 0.1% w/v, 90 mins): 7.41 Log10 | Microbial Load Reduction (Log10 Scale) ([1]; cotton cloth coated with 0.25% w/v, 0 mins): 0.00 Log10 | Microbial Load Reduction (Log10 Scale) ([1]; cotton cloth coated with 0.25% w/v, 10 mins): 7.45 Log10 | Microbial Load Reduction (Log10 Scale) ([1]; cotton cloth coated with 0.25% w/v, 30 mins): 7.45 Log10 | Microbial Load Reduction (Log10 Scale) ([1]; cotton cloth coated with 0.25% w/v, 45 mins): 7.45 Log10 | Microbial Load Reduction (Log10 Scale) ([1]; cotton cloth coated with 0.25% w/v, 60 mins): 7.45 Log10 | Microbial Load Reduction (Log10 Scale) ([1]; cotton cloth coated with 0.25% w/v, 90 mins): 7.45 Log10 | Microbial Load Reduction (Log10 Scale) ([1]; cotton cloth coated with 0.5% w/v, 0 mins): 0.00 Log10 | Microbial Load Reduction (Log10 Scale) ([1]; cotton cloth coated with 0.5% w/v, 10 mins): 7.00 Log10 | Microbial Load Reduction (Log10 Scale) ([1]; cotton cloth coated with 0.5% w/v, 30 mins): 7.00 Log10 | Microbial Load Reduction (Log10 Scale) ([1]; cotton cloth coated with 0.5% w/v, 45 mins): 7.00 Log10 | Microbial Load Reduction (Log10 Scale) ([1]; cotton cloth coated with 0.5% w/v, 60 mins): 7.00 Log10 | Microbial Load Reduction (Log10 Scale) ([1]; cotton cloth coated with 0.5% w/v, 90 mins): 7.00 Log10 | Microbial Load Reduction (Log10 Scale) ([1]; cotton cloth coated with 0.75% w/v, 0 mins): 0.00 Log10 | Microbial Load Reduction (Log10 Scale) ([1]; cotton cloth coated with 0.75% w/v, 10 mins): 7.78 Log10 | Microbial Load Reduction (Log10 Scale) ([1]; cotton cloth coated with 0.75% w/v, 30 mins): 7.78 Log10 | Microbial Load Reduction (Log10 Scale) ([1]; cotton cloth coated with 0.75% w/v, 45 mins): 7.78 Log10 | Microbial Load Reduction (Log10 Scale) ([1]; cotton cloth coated with 0.75% w/v, 60 mins): 7.78 Log10 | Microbial Load Reduction (Log10 Scale) ([1]; cotton cloth coated with 0.75% w/v, 90 mins): 7.78 Log10 | log10 reduction in microbial load ([2]; coated cotton cloth not subjected to electric field, until 30 minutes (Experiment 1 Trial 1 and 3)): ≤ 2.16 log10 | Microbial Load Reduction (Log10 Scale) ([2]; With Electric Field (SMPS, 4 kV/cm, 0.05 μF), 0 mins): 0.00 Log10 | Microbial Load Reduction (Log10 Scale) ([2]; With Electric Field (SMPS, 4 kV/cm, 0.05 μF), 10 mins): 7.48 Log10 and 7.30 Log10 | Microbial Load Reduction (Log10 Scale) ([2]; With Electric Field (SMPS, 4 kV/cm, 0.05 μF), 30 mins): 7.48 Log10 and 7.30 Log10 | Microbial Load Reduction (Log10 Scale) ([2]; Without Electric Field, 0 mins): 0.00 Log10 | Microbial Load Reduction (Log10 Scale) ([2]; Without Electric Field, 10 mins): 1.09 Log10 and 1.06 Log10 | Microbial Load Reduction (Log10 Scale) ([2]; Without Electric Field, 30 mins): 2.16 Log10 and 2.15 Log10 | Microbial Load Reduction (Log10 Scale) ([3]; Metal (aluminium plate) + QAC 0.01% w/v + Electric Field (SMPS, 4 kV/cm, 0.05 μF), 0 mins): 0.00 Log10 | Microbial Load Reduction (Log10 Scale) ([3]; Metal (aluminium plate) + QAC 0.01% w/v + Electric Field (SMPS, 4 kV/cm, 0.05 μF), 5 mins): 5.55 Log10 | Microbial Load Reduction (Log10 Scale) ([3]; Metal (aluminium plate) + QAC 0.01% w/v + Electric Field (SMPS, 4 kV/cm, 0.05 μF), 10 mins): 7.51 Log10 | Microbial Load Reduction (Log10 Scale) ([3]; Metal (aluminium plate) + QAC 0.01% w/v + Electric Field (SMPS, 4 kV/cm, 0.05 μF), 20 mins): 7.51 Log10 | Microbial Load Reduction (Log10 Scale) ([3]; Metal (aluminium plate) + QAC 0.01% w/v + Electric Field (SMPS, 4 kV/cm, 0.05 μF), 30 mins): 7.51 Log10 | Microbial Load Reduction (Log10 Scale) ([3]; Metal (aluminium plate) + QAC 0.01% w/v, no electric field, 0 mins): 0.00 Log10 | Microbial Load Reduction (Log10 Scale) ([3]; Metal (aluminium plate) + QAC 0.01% w/v, no electric field, 5 mins): 0.22 Log10 | Microbial Load Reduction (Log10 Scale) ([3]; Metal (aluminium plate) + QAC 0.01% w/v, no electric field, 10 mins): 0.42 Log10 | Microbial Load Reduction (Log10 Scale) ([3]; Metal (aluminium plate) + QAC 0.01% w/v, no electric field, 20 mins): 0.57 Log10 | Microbial Load Reduction (Log10 Scale) ([3]; Metal (aluminium plate) + QAC 0.01% w/v, no electric field, 30 mins): 0.95 Log10 | reduction in the microbial load ([3]; metal coated with CTAB alone, at 30 minutes (Experiment No. 3)): no significant reduction in the microbial load | reduction in the microbial load ([4]; coating followed by electric field at capacitance 0.00025 μF or 0.000025 μF (Experiments 4 and 5)): a notable reduction in the microbial load was observed only around 5 minutes | Microbial Load Reduction (Log10 Scale) ([4]; capacitance 0.000025 μF, 3 mins): 1.01 Log10 | Microbial Load Reduction (Log10 Scale) ([4]; capacitance 0.000025 μF, 4 mins): 2.09 Log10 | Microbial Load Reduction (Log10 Scale) ([4]; capacitance 0.000025 μF, 5 mins): 3.20 Log10 | Microbial Load Reduction (Log10 Scale) ([4]; capacitance 0.00025 μF, 3 mins): 1.01 Log10 | Microbial Load Reduction (Log10 Scale) ([4]; capacitance 0.00025 μF, 4 mins): 3.20 Log10 | Microbial Load Reduction (Log10 Scale) ([4]; capacitance 0.00025 μF, 5 mins): 4.44 Log10 | Microbial Load Reduction (Log10 Scale) ([4]; capacitance 0.0025 μF, 3 mins): 2.12 Log10 | Microbial Load Reduction (Log10 Scale) ([4]; capacitance 0.0025 μF, 4 mins): 3.27 Log10 | Microbial Load Reduction (Log10 Scale) ([4]; capacitance 0.0025 μF, 5 mins): 6.78 Log10 | Microbial Load Reduction (Log10 Scale) ([4]; capacitance 0.025 μF, 3 mins): 4.32 Log10 | Microbial Load Reduction (Log10 Scale) ([4]; capacitance 0.025 μF, 4 mins): 6.78 Log10 | Microbial Load Reduction (Log10 Scale) ([4]; capacitance 0.025 μF, 5 mins): 6.78 Log10 | Microbial Load Reduction (Log10 Scale) ([4]; capacitance 0.05 μF, 3 mins): 4.44 Log10 | Microbial Load Reduction (Log10 Scale) ([4]; capacitance 0.05 μF, 4 mins): 6.78 Log10 | Microbial Load Reduction (Log10 Scale) ([4]; capacitance 0.05 μF, 5 mins): 6.78 Log10 | reduction in the microbial load ([5]; coating followed by electric field at voltage lower than 2 kV/cm (0.5, 0.75, 1 or 1.25 kV/cm)): no notable reduction in the microbial load | Microbial load reduction (Log10 scale) at 10 mins ([5]; applied voltage 0.5 kV/cm): 1.18 Log10 | Microbial load reduction (Log10 scale) at 10 mins ([5]; applied voltage 0.75 kV/cm): 1.22 Log10 | Microbial load reduction (Log10 scale) at 10 mins ([5]; applied voltage 1 kV/cm): 1.44 Log10 | Microbial load reduction (Log10 scale) at 10 mins ([5]; applied voltage 1.25 kV/cm): 1.68 Log10 | Microbial load reduction (Log10 scale) at 10 mins ([5]; applied voltage 2 kV/cm): 7.68 Log10 | Microbial load reduction (Log10 scale) at 10 mins ([5]; applied voltage 2.5 kV/cm): 8.78 Log10 | Microbial load reduction (Log10 scale) at 10 mins ([5]; applied voltage 3 kV/cm): 9.42 Log10
